Among the data in patent US6300320A, “Modulation of c-jun using inhibitors of protein kinase C” (Isis Pharmaceuticals, Inc., priority 1999, dated 2001) are activity values, retold here.

For the assay, the system named is c-jun mRNA expression in A549 cells. Kind of assay: Phorbol ester (TPA) mediated AP-1 gene expression in A549 cells, Northern blotting. In kind it is cell-based. Conditions: Homo sapiens, 0.5 h, 100 nM TPA for 30 minutes, no oligo, basal = 100%. How it is done:
The effect of PKC-α reduction on AP-1 transcription factor components was determined. 12-O-tetradecanoylphorbol-13-acetate (TPA) causes a time dependent accumulation of mRNA transcripts of multiple members of AP-1, including c-jun, jun-B and c-fos.
A549 cells were treated with 100 nM ISIS 9606 (SEQ ID NO. 2) or ISIS 13009 (SEQ ID NO. 23) and DOTMA/DOPE as described in Example 13. Cells were then washed and allowed to recover for an additional 68 hours. Cells were then treated with 100 nM TPA for 30 minutes and the expression of either c-fos, jun-B, c-jun or G3PDH mRNA expression was determined by Northern blotting.
Total RNA was extracted from cells and resolved on agarose gels as described in Example 6. These were transferred to nylon membrane (Biorad, Hercules, Calif.) and probed with ^32 P radiolabelled cDNA probes for different PKC isozymes. Additionally, gels were probed with ^32 P radiolabelled cDNA probes for c-fos, c-jun, and junB (American Type Culture Collection, Manassas, Va.). Gels were routinely stripped and reprobed with radiolabelled human […]-3-phosphate dehydrogenase (G3PDH) probe to confirm equal loading. Radioactive bands were quantified using a Phospholmager (Molecular Dynamics, Sunnyvale, Calif.). […] A scrambled control oligonucleotide was without effect on the up-regulation of any AP-1 family member. […]

In the case of `CCCCCCCCCCCCCC(=O)O[C@@H]1[C@@H](C)[C@@]2(O)[C@@H](C=C(CO)C[C@]3(O)C(=O)C(C)=C[C@@H]23)[C@@H]2C(C)(C)[C@]12OC(C)=O` [TPA, 12-O-tetradecanoylphorbol-13-acetate], the activity at 0.1 µM stood at 353%.
